Assay results published in patent publication US8734796B2, “Carrier immunoglobulins” (Amgen Inc., priority 2009, dated 2014).
No end group written: not given here.

Assays:
[1] = system: thapsigargin-induced IL-2 secretion from T cells in human whole blood; test: Human whole blood ex vivo assay, IL-2 secretion; type: cell-based; conditions: for IC50: 50% human whole blood, thapsigargin stimulus, 48 hours, read-out: WB (IL-2) IC50
[2] = system: thapsigargin-induced IFN-g secretion from T cells in human whole blood; test: Human whole blood ex vivo assay, IFN-g secretion; type: cell-based; conditions: 50% human whole blood, thapsigargin stimulus, 48 hours; read-out: WB (IFNg) IC50
cloned hKv1.5 = cloned hKv1.5 (Homo sapiens, UniProt P22460); test: FASTPatch PatchXpress counterscreen, hKv1.5; type: cell-based; conditions: positive control, 2 mM
[3] = reported by C. Beeton et al., PNAS 98:13942 (2001); cited from earlier work
cloned hKv4.3 = biological target: T1, cloned hKv4.3 (Homo sapiens, UniProt Q9UK17); test: FASTPatch PatchXpress counterscreen, hKv4.3; type: cell-based; conditions: positive control, 0.1 mM
T1 sequence (Q9UK17 1-655): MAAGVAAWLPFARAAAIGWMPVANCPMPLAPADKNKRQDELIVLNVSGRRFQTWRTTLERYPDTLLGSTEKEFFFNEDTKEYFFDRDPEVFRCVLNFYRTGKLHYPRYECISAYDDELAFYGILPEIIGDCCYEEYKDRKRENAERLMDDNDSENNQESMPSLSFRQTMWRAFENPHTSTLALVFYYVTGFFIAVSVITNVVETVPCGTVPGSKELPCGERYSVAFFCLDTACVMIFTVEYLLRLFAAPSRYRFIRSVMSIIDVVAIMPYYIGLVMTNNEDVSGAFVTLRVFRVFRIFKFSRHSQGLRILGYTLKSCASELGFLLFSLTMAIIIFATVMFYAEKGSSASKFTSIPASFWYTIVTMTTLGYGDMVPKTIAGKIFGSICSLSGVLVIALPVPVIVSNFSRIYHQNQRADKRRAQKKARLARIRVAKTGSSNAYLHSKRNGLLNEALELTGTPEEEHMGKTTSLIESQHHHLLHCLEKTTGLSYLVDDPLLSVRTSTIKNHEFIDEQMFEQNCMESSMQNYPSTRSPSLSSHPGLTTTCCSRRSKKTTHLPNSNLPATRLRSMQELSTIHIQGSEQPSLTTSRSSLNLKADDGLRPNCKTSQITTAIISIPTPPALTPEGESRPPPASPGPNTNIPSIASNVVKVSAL

human Kv1.3 = human Kv1.3 (Homo sapiens, UniProt P22001); test: Whole cell patch clamp electrophysiology, Kv1.3
DNP(31)-BSA = biological target: T2, DNP(31)-BSA (Bos taurus, UniProt P02769); test: BIAcore binding assay, DNP(31)-BSA; conditions: apparent
T2 construct: purchased Biosearch Technologies, Inc. (Novato, Calif.)
Experimental: Materials. Purified anti-DNP antibodies from either hybridoma (3A1, 3C2, 3A4 and 3B1) or recombinant CHO (3A4-F-G2 and 3B1-G2) expression were tested. Anti-human IgG, Fcγ-specific antibody was from Jackson ImmunoResearch Laboratories, Inc. (West Grove, Pa.). DNP-BSA (2,4-dinitrophenol conjugated to bovine serum albumin) was from Biosearch Technologies, Inc. (Novato, Calif.). BIACore 2000, research grade sensor chip CM5, surfactant P-20 (polyoxyethylenesorbitan), HBS-EP (10 mM HEPES, 0.15M NaCl, 3.4 mM EDTA, 0.005% P-20, pH 7.4), amine coupling reagents, 10 mM acetate pH 4.0 and 10 mM glycine, pH 1.5 were from BIACore, Inc. (Piscataway, N.J.). Phosphate-buffered saline (PBS, 1×, no calcium chloride, no magnesium chloride) was from Invitrogen (Carlsbad, Calif.). Bovine serum albumin (BSA, fraction V, IgG free) was from Sigma (St. Louis, Mo.).
Methods. BIAcore® analyses were carried out as follows. Immobilization of anti-human IgG, Fcγ-specific antibody to the CM5 sensor chip surface was performed according to manufacturer's instructions, using a continuous flow of 10 mM HEPES, 0.15M NaCl, 3.4 mM EDTA, 0.005% P-20, pH 7.4 (HBS-EP buffer). Briefly, carboxyl groups on the sensor chip surfaces were activated by injecting 60 μL of a mixture containing 0.2 M 1-ethyl-3-[3-dimethylaminopropyl]carbodiimide hydrochloride (EDC) and 0.05 M N-hydroxysuccinimide (NHS). Specific surfaces were obtained by injecting 180 μL of anti-human IgG, Fcγ-specific antibody diluted in 10 mM acetate buffer (for assay of aKLH antibodies: pH 4.5 at a concentration of 30 μg/mL; for assay of aDNP antibodies: pH 4.0 at a concentration of 60 μg/mL). Excess reactive groups on the surfaces were deactivated by injecting 60 μL of 1 M ethanolamine. Final immobilized levels were about 9,000 (for assay of aKLH antibodies) or about 10,000 (for assay of aDNP antibodies) resonance units (RU). A blank, mock-coupled reference surface was also prepared on the sensor chip. Antibodies and antigen were diluted in sample buffer consisting of PBS+0.005% P-20+0.1 mg/mL BSA. […]

T2 sequence (P02769 25-607): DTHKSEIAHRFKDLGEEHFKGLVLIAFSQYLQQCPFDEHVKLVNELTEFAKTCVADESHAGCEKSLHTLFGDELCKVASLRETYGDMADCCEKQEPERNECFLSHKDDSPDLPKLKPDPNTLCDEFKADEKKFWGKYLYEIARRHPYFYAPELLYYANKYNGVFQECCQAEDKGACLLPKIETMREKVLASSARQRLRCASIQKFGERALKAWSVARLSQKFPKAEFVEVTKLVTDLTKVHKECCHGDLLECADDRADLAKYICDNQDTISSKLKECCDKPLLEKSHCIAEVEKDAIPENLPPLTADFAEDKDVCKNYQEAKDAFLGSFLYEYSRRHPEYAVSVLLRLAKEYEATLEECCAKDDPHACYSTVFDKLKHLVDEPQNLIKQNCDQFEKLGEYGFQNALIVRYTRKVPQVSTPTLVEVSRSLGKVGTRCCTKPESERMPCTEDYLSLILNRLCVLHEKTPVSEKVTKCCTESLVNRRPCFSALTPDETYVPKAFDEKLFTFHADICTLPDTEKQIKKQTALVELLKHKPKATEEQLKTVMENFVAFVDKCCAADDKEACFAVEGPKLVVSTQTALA
Sequence of human Kv1.3 (P22001 whole entry): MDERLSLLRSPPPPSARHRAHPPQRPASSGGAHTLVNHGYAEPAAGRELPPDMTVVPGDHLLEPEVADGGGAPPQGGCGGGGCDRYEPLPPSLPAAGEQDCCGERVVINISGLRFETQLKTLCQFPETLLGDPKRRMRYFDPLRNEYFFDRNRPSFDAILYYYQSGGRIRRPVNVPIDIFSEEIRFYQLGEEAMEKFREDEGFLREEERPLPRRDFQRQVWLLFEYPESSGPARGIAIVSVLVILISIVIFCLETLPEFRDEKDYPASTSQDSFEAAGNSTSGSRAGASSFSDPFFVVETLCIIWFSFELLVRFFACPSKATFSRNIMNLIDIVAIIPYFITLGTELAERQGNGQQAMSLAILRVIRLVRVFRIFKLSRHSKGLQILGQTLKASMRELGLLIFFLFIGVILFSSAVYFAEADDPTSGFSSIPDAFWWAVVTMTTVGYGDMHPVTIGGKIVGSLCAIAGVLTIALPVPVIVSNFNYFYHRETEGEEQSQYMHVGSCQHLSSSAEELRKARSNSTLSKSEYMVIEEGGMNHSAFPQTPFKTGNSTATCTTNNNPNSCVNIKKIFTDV
Sequence of cloned hKv1.5 (P22460 whole entry): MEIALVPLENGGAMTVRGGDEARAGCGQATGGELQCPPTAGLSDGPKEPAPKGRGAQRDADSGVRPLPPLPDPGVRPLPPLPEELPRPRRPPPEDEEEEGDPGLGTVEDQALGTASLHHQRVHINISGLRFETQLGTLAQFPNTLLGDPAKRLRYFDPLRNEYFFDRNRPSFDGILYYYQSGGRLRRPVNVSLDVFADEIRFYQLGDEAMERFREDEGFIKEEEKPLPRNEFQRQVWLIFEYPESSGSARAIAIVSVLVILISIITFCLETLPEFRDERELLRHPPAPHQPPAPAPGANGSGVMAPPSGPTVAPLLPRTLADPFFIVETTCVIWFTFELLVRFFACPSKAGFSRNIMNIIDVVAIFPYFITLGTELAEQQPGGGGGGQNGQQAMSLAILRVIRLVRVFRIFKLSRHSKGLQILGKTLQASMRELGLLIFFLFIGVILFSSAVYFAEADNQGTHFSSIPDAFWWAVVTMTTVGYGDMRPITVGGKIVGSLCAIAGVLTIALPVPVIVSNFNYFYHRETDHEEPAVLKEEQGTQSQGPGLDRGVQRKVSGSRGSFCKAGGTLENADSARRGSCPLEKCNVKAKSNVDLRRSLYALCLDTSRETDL

20 kDa-PEG-ShK: SEQ ID NO:363; ShK PEGylated at its N-terminus with 20 kDa PEG [reference compound]
IC50 [1]: 380 pM | IC50 [2]: 840 pM

Nc1ccncc1 [4-aminopyridine]
block of the hKv1.5 current (cloned hKv1.5): about 80%

CC[C@H](C)[C@@H]1NC(=O)[C@@H](NC(=O)[C@H](CO)NC(=O)[C@@H](N)CCCNC(=N)N)CSSC[C@@H](C(=O)O)NC(=O)[C@H]([C@@H](C)O)NC(=O)CNC(=O)[C@@H]2CSSC[C@@H]3NC(=O)[C@H](CCC(N)=O)NC(=O)[C@H](Cc4ccccc4)NC(=O)[C@H](C)NC(=O)[C@H]([C@@H](C)O)NC(=O)[C@H](CSSC[C@H](NC(=O)[C@H](Cc4ccccc4)NC(=O)[C@H](CO)NC(=O)[C@H](CC(C)C)NC(=O)[C@H](CCCNC(=N)N)NC(=O)[C@H](Cc4ccc(O)cc4)NC(=O)[C@H](CCCCN)NC(=O)[C@H](CCSC)NC(=O)[C@H](CO)NC(=O)[C@H](Cc4cnc[nH]4)NC(=O)[C@H](CCCCN)NC3=O)C(=O)N[C@@H](CCCNC(=N)N)C(=O)N[C@@H](CCCCN)C(=O)N[C@@H]([C@@H](C)O)C(=O)N2)NC(=O)[C@H](CCCNC(=N)N)NC(=O)[C@H](CO)NC(=O)[C@H](CCCCN)NC(=O)[C@@H]2CCCN2C(=O)[C@H]([C@@H](C)CC)NC(=O)[C@H]([C@@H](C)O)NC(=O)[C@H](CC(=O)O)NC1=O [ShK(1-35), ShK]
half-life [3]: 20 to 30 min

O=C(NCC1CCCCN1)c1cc(OCC(F)(F)F)ccc1OCC(F)(F)F (stereo not drawn) [flecamide]
inhibition of the hKv4.3 current (cloned hKv4.3): about 75%

Bivalent Fc-L10-ShK[1-35] homodimer: IgG1 Fc-L10-ShK(1-35) peptibody homodimer, Example 1 of WO2008/088422A2 (GGGGSGGGGSRSCIDTIPKSRCTAFQCKHSMKYRLSFCRKTCGTC; not fully specified (N-terminus); ends and bridges not checked; also: homodimer via Fc) [reference compound]
IC50 [1]: 386 pM | greater Kv1.3 activity compared to the bivalent Fc-L10-ShK(2-35) molecule (human Kv1.3; whole cell patch clamp electrophysiology): about 8 fold | IC50 [2]: 320 pM

Bivalent Fc-L10-ShK[2-35] homodimer: IgG1 Fc-L10-ShK(2-35) peptibody homodimer, Example 2 of WO2008/088422A2 (GGGGSGGGGSSCIDTIPKSRCTAFQCKHSMKYRLSFCRKTCGTC; not fully specified (N-terminus); ends and bridges not checked; also: homodimer via Fc) [reference compound]
IC50 [1]: 585 pM | Potency Relative to ShK (WB, IL2) ([1]; ratio of WB IL-2 IC50 to that of ShK(1-35)): 8.73 | Kv1.1/Kv1.3 Selectivity Ratio (of asterisked IC50 values) (human Kv1.3; IC50 values from whole cell patch clamp): 3.54 | IC50 [2]: 2280 pM

B1: 3B1-G2: recombinant IgG2 form of anti-DNP antibody 3B1 (protein)
light: DIQMTQSPSSLSASEGDRVTITCRASQGIRNDLGWYQQKPGKAPKRLIYAASSLQSGVPLRFSGSGSGTEFTLTISSLQPEDFATYYCLQYNSYPWTFGQGTKVEIKRTVAAPSVFIFPPSDEQLKSGTASVVCLLNNFYPREAKVQWKVDNALQSGNSQESVTEQDSKDSTYSLSSTLTLSKADYEKHKVYACEVTHQGLSSPVTKSFNRGEC
heavy: QVQLQESGPGLVKPSETLSLTCTVSGGSISSYYWSWIRQPPGKGLEWIGYIYYSGNTNSNPSLKSRVTISVDTSKNQFSLKLSSVTAADTAVYYCARTYYDSSGYYYRAFDIWGQGTMVTVSSASTKGPSVFPLAPCSRSTSESTAALGCLVKDYFPEPVTVSWNSGALTSGVHTFPAVLQSSGLYSLSSVVTVPSSNFGTQTYTCNVDHKPSNTKVDKTVERKCCVECPPCPAPPVAGPSVFLFPPKPKDTLMISRTPEVTCVVVDVSHEDPEVQFNWYVDGVEVHNAKTKPREEQFNSTFRVVSVLTVVHQDWLNGKEYKCKVSNKGLPAPIEKTISKTKGQPREPQVYTLPPSREEMTKNQVSLTCLVKGFYPSDIAVEWESNGQPENNYKTTPPMLDSDGSFFLYSKLTVDKSRWQQGNVFSCSVMHEALHNHYTQKSLSLSPGK
Kd (DNP(31)-BSA): 700 pM | ka, Binding to DNP(31)-BSA (DNP(31)-BSA; ne(y) = n × 10^(y)): 420000 M⁻¹ s⁻¹ | kd, Binding to DNP(31)-BSA (DNP(31)-BSA; ne(y) = n × 10^(y)): 0.00031 s⁻¹
